Read-outs that look alike come from different tables or passages of the source.
Key:
[1] = molecular target: T1, catalytic domain of human Bub1 (amino acids 704-1085) (Homo sapiens, UniProt O43683); assay: Bub1 kinase assay (TR-FRET); assay type: biochemical
T1 construct: catalytic domain of human Bub1 (amino acids 704-1085); His6 (N); made in house; host or cells: Hi5 insect cells
Method: To this end, 100-fold concentrated compound solutions (in DMSO) were previously prepared by serial dilution (1:3.4) of 2 mM stocks in a clear low volume 384-well source microtiter plate (Greiner Bio-One, Frickenhausen, Germany), from which 50 nL of compounds were transferred into a black low volume test microtiter plate from the same supplier. […] The resulting mixture (5 μL final volume) was incubated at 22° C. during 60 min., and the reaction was stopped by the addition of 5 μL of an aqueous EDTA-solution (50 mM EDTA, in 100 mM HEPES pH 7.5 and 0.2% (w/v) bovine serum albumin) which also contained the TR-FRET detection reagents (0.2 μM streptavidin-XL665 [Cisbio Bioassays, Codolet, France] and 1 nM anti-phoshoSerine antibody [Merck Millipore, cat. #35-001] and 0.4 nM LANCE EU-W1024 labeled anti-mouse IgG antibody [Perkin-Elmer, product no. AD0077, alternatively a Terbium-cryptate-labeled anti-mouse IgG antibody from Cisbio Bioassays can be used]). The stopped reaction mixture was further incubated 1 h at 22° C. in order to allow the formation of complexes between peptides and detection reagents. Subsequently, the amount of product was evaluated by measurement of the resonance energy transfer from the Eu-chelate-antibody complex recognizing the Phosphoserine residue to the streptavidin-XL665 bound to the biotin moiety of the peptide.

HeLa cell line = assay: Proliferation assay (HeLa cell line); assay type: cell-based; conditions: Homo sapiens, 96 h, read-out: Biological Assay 2: Proliferation assay (HeLa cell line) median IC50
Method: Cultivated tumor cells (cells were ordered from ATCC, except HeLa-MaTu and HeLa-MaTu-ADR, which were ordered from EPO-GmbH, Berlin) were plated at a density of 1000 to 5000 cells/well, depending on the growth rate of the respective cell line, in a 96-well multititer plate in 200 μL of their respective growth medium supplemented 10% fetal calf serum. After 24 hours, the cells of one plate (zero-point plate) were stained with crystal violet (see below), while the medium of the other plates was replaced by fresh culture medium (200 μL), to which the test substances were added in various concentrations (0 μM, as well as in the range of 0.001-10 μM; the final concentration of the solvent dimethyl sulfoxide was 0.5%). The cells were incubated for 4 days in the presence of test substances. Cell proliferation was determined by staining the cells with crystal violet: the cells were fixed by adding 20 μL/measuring point of an 11% glutaric aldehyde solution for 15 minutes at room temperature. After three washing cycles of the fixed cells with water, the plates were dried at room temperature. The cells were stained by adding 100 μL/measuring point of a 0.1% crystal violet solution (pH 3.0). After three washing cycles of the stained cells with water, the plates were dried at room temperature. The dye was dissolved by adding 100 μl/measuring point of a 10% acetic acid solution. Absorbtion was determined by photometry at a wavelength of 595 nm. The change of cell number, in percent, was calculated by normalization of the measured values to the absorbtion values of the zero-point plate (=0%) and the absorbtion of the untreated (0 μm) cells (=100%). The IC50 values were determined by means of a 4 parameter fit.

[2] = 4 days incubation, crystal violet staining
[3] = 10 μM ATP, 1 μM peptide substrate, TR-FRET, read-out: Biological Assay 1: Bub1 kinase assay median IC50

T1 sequence (O43683 704-1085): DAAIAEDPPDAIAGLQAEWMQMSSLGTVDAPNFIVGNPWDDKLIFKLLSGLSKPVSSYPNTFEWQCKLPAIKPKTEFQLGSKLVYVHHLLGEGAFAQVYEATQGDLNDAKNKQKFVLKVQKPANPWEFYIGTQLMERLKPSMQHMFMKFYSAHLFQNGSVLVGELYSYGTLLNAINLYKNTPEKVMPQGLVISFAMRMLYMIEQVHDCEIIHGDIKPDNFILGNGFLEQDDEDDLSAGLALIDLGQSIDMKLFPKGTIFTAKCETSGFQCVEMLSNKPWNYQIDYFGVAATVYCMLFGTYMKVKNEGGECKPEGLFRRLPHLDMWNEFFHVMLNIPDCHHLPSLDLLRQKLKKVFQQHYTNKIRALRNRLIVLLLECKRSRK

## CCOc1cc(F)c(Cn2nc(-c3nc(Nc4ccnnc4)cc(Nc4ccnnc4)n3)c(C)c2C2CC2)c(F)c1 [Example 2-2-10, 2-[5-cyclopropyl-1-(4-ethoxy-2,6-difluorobenzyl)-4-methyl-1H-pyrazol-3-yl]-N,N′-di(pyridazin-4-yl)pyrimidine-4,6-diamine]
[1]
  IC50: 1000 nM
HeLa cell line; [2]
  IC50: 10000 nM

## CCOc1cc(F)c(Cn2nc(-c3nc(N)c(NS(=O)(=O)C(F)(F)F)c(Nc4ccncc4)n3)c(C)c2C2CC2)c(F)c1 [Example 2-1-31, N-{4-amino-2-[5-cyclopropyl-1-(4-ethoxy-2,6-difluorobenzyl)-4-methyl-1H-pyrazol-3-yl]-6-(pyridin-4-ylamino)pyrimidin-5-yl}-1,1,1-trifluoromethanesulfonamide]
[1]; [3]
  IC50: 9.8 nM
HeLa cell line
  IC50: 10000 nM

## CCOc1cc(F)c(Cn2nc(-c3nc(Nc4ccncn4)c(OC)c(Nc4ccncn4)n3)c(C)c2C2CC2)c(F)c1 [Example 2-2-5, 2-[5-cyclopropyl-1-(4-ethoxy-2,6-difluorobenzyl)-4-methyl-1H-pyrazol-3-yl]-5-methoxy-N,N′-di(pyrimidin-4-yl)pyrimidine-4,6-diamine]
[1]; [3]
  IC50: 180 nM
HeLa cell line
  IC50: > 10000 nM

## CCNC(=O)Nc1nc(-c2nn(Cc3c(F)cc(OCC)cc3F)c(C3CC3)c2C)nc(Nc2ccncc2)c1N1CCOCC1 [Example 2-1-18, 1-{2-[5-cyclopropyl-1-(4-ethoxy-2,6-difluorobenzyl)-4-methyl-1H-pyrazol-3-yl]-5-(morpholin-4-yl)-6-(pyridin-4-ylamino)pyrimidin-4-yl}-3-ethylurea]
[1]
  IC50: 290 nM
HeLa cell line; [2]
  IC50: 10000 nM

## CCOc1cc(F)c(Cn2nc(-c3nc(NC(=O)NC4CCCCC4)cc(Nc4ccncn4)n3)c(C)c2C2CC2)c(F)c1 [Example 2-1-13, 1-cyclohexyl-3-{2-[5-cyclopropyl-1-(4-ethoxy-2,6-difluorobenzyl)-4-methyl-1H-pyrazol-3-yl]-6-(pyrimidin-4-ylamino)pyrimidin-4-yl}urea]
[1]; [3]
  IC50: 550 nM

## CCOc1cc(F)c(Cn2nc(-c3nc(Nc4ccnnc4)nc(Nc4ccnnc4)n3)c(C)c2C2CC2)c(F)c1 [Example 2-2-11, 6-[5-cyclopropyl-1-(4-ethoxy-2,6-difluorobenzyl)-4-methyl-1H-pyrazol-3-yl]-N,N′-di(pyridazin-4-yl)-1,3,5-triazine-2,4-diamine]
[1]
  IC50: 5500 nM

## CCOc1cc(F)c(Cn2nc(-c3nc(Nc4ccncn4)c(N4CCOCC4)c(Nc4ccncn4)n3)c(C)c2C2CC2)c(F)c1 [Example 2-2-7, 2-[5-cyclopropyl-1-(4-ethoxy-2,6-difluorobenzyl)-4-methyl-1H-pyrazol-3-yl]-5-(morpholin-4-yl)-N,N′-di(pyrimidin-4-yl)pyrimidine-4,6-diamine]
[1]
  IC50: 140 nM

## CCNC(=O)Nc1c(Nc2ccncc2)nc(-c2nn(Cc3c(F)cc(OCC)cc3F)c(C3CC3)c2C)nc1Nc1ccncc1 [Example 2-2-16, 1-{2-[5-cyclopropyl-1-(4-ethoxy-2,6-difluorobenzyl)-4-methyl-1H-pyrazol-3-yl]-4,6-bis(pyridin-4-ylamino)pyrimidin-5-yl}-3-ethylurea]
[1]; [3]
  IC50: 150 nM
HeLa cell line
  IC50: 2200 nM

## CCNC(=O)Nc1nc(-c2nn(Cc3c(F)cc(OCC)cc3F)c(C3CC3)c2C)nc(Nc2ccncc2)c1OC [Example 2-1-14, 1-{2-[5-cyclopropyl-1-(4-ethoxy-2,6-difluorobenzyl)-4-methyl-1H-pyrazol-3-yl]-5-methoxy-6-(pyridin-4-ylamino)pyrimidin-4-yl}-3-ethylurea]
[1]; [3]
  IC50: 310 nM
HeLa cell line
  IC50: 3800 nM

## CCOc1cc(F)c(Cn2nc(-c3nc(Nc4ccncn4)c(NC(=O)COC)c(Nc4ccncn4)n3)c(C)c2C2CC2)c(F)c1 [Example 2-2-15, N-{2-[5-cyclopropyl-1-(4-ethoxy-2,6-difluorobenzyl)-4-methyl-1H-pyrazol-3-yl]-4,6-bis(pyrimidin-4-ylamino)pyrimidin-5-yl}-2-methoxyacetamide]
[1]
  IC50: 42 nM
HeLa cell line; [2]
  IC50: 4700 nM

## CCOc1cc(F)c(Cn2nc(-c3nc(N)cc(Nc4ccncc4)n3)c(C)c2C2CC2)c(F)c1 [Example 2-1-1, 2-[5-cyclopropyl-1-(4-ethoxy-2,6-difluorobenzyl)-4-methyl-1H-pyrazol-3-yl]-N-(pyridin-4-yl)pyrimidine-4,6-diamine]
[1]; [3]
  IC50: 10 nM
HeLa cell line
  IC50: > 10000 nM

## CCOc1cc(F)c(Cn2nc(-c3nc(N)c(OCCOC)c(Nc4ccncn4)n3)c(C)c2C2CC2)c(F)c1 [Example 2-1-26, 2-[5-cyclopropyl-1-(4-ethoxy-2,6-difluorobenzyl)-4-methyl-1H-pyrazol-3-yl]-5-(2-methoxyethoxy)-N-(pyrimidin-4-yl)pyrimidine-4,6-diamine]
[1]
  IC50: 9.2 nM
HeLa cell line; [2]
  IC50: 4200 nM

## CCOc1cc(F)c(Cn2nc(-c3nc(N)nc(Nc4ccncn4)n3)c(C)c2C2CC2)c(F)c1 [Example 2-1-9, 6-[5-cyclopropyl-1-(4-ethoxy-2,6-difluorobenzyl)-4-methyl-1H-pyrazol-3-yl]-N-(pyrimidin-4-yl)-1,3,5-triazine-2,4-diamine]
[1]
  IC50: 12 nM
HeLa cell line; [2]
  IC50: 6000 nM

## CCOc1cc(F)c(Cn2nc(-c3nc(Nc4ccnc(OC)c4)cc(Nc4ccnc(OC)c4)n3)c(C)c2C2CC2)c(F)c1 [Example 2-2-2, 2-[5-cyclopropyl-1-(4-ethoxy-2,6-difluorobenzyl)-4-methyl-1H-pyrazol-3-yl]-N,N′-bis(2-methoxypyridin-4-yl)pyrimidine-4,6-diamine]
[1]
  IC50: ≥ 20000 nM

## CCOc1cc(F)c(Cn2nc(-c3nc(Nc4ccncc4)nc(Nc4ccncc4)n3)c(C)c2C2CC2)c(F)c1 [Example 2-2-8, 6-[5-cyclopropyl-1-(4-ethoxy-2,6-difluorobenzyl)-4-methyl-1H-pyrazol-3-yl]-N,N′-di(pyridin-4-yl)-1,3,5-triazine-2,4-diamine]
[1]
  IC50: 67 nM

## CCOc1cc(F)c(Cn2nc(-c3nc(Nc4ccncc4)c(NS(=O)(=O)C(F)(F)F)c(Nc4ccncc4)n3)c(C)c2C2CC2)c(F)c1 [Example 2-2-18, N-{2-[5-cyclopropyl-1-(4-ethoxy-2,6-difluorobenzyl)-4-methyl-1H-pyrazol-3-yl]-4,6-bis(pyridin-4-ylamino)pyrimidin-5-yl}-1,1,1-trifluoromethanesulfonamide]
[1]; [3]
  IC50: 13000 nM
HeLa cell line
  IC50: 3000 nM

## CCNC(=O)Nc1c(N)nc(-c2nn(Cc3c(F)cc(OCC)cc3F)c(C3CC3)c2C)nc1Nc1ccncc1 [Example 2-1-29, 1-{4-amino-2-[5-cyclopropyl-1-(4-ethoxy-2,6-difluorobenzyl)-4-methyl-1H-pyrazol-3-yl]-6-(pyridin-4-ylamino)pyrimidin-5-yl}-3-ethylurea]
[1]; [3]
  IC50: 19 nM
HeLa cell line
  IC50: 5300 nM

## CCOc1cc(F)c(Cn2nc(-c3nc(NC(=O)NC4CCCCC4)cc(Nc4ccncc4)n3)c(C)c2C2CC2)c(F)c1 [Example 2-1-12, 1-cyclohexyl-3-{2-[5-cyclopropyl-1-(4-ethoxy-2,6-difluorobenzyl)-4-methyl-1H-pyrazol-3-yl]-6-(pyridin-4-ylamino)pyrimidin-4-yl}urea]
[1]; [3]
  IC50: 240 nM

## CCOc1cc(F)c(Cn2nc(-c3nc(Nc4ccncc4)c(OC)c(Nc4ccncc4)n3)c(C)c2C2CC2)c(F)c1 [Example 2-2-4, 2-[5-cyclopropyl-1-(4-ethoxy-2,6-difluorobenzyl)-4-methyl-1H-pyrazol-3-yl]-5-methoxy-N,N′-di(pyridin-4-yl)pyrimidine-4,6-diamine]
[1]; [3]
  IC50: 310 nM

## CCNC(=O)Nc1nc(-c2nn(Cc3c(F)cc(OCC)cc3F)c(C3CC3)c2C)nc(Nc2ccncn2)c1OC [Example 2-1-15, 1-{2-[5-cyclopropyl-1-(4-ethoxy-2,6-difluorobenzyl)-4-methyl-1H-pyrazol-3-yl]-5-methoxy-6-(pyrimidin-4-ylamino)pyrimidin-4-yl}-3-ethylurea]
[1]; [3]
  IC50: 340 nM

Source: patent US20160145267A1, “HETEROARYL SUBSTITUTED PYRAZOLES” (BAYER PHARMA AKTIENGESELLSCHAFT, priority 2013, published 2016)
